The values below come from paper PMC12751025, “α‑Aminoboronic Acid Moieties in Boro Dipeptides Modulate Proteasome Subunit Selectivity and Provide Access to Compounds with Potent Anticancer and Anti-Inflammatory Activity” (Journal of Medicinal Chemistry, 2025).

Converted amounts (≈) assume the structure as drawn.

One data set has as its target T1, β2c subunit of human cCP (Homo sapiens, UniProt P49720+Q99436).
T1 construct: purchased Boston Biochem, Inc
Description: IC50 determination with fluorogenic substrate Ac-RLR-AMC (PA28β added). In kind it is biochemical. The note with it: human cCP; mean of at least three experiments; NA: not active at 50 μM.

The next data set is described as follows: Caco-2 permeability. In kind it is in vitro ADME. To be noted: human; for Papp A→B at 90 min, 10 μM / Papp B→A at 90 min, 10 μM: pH 7.4, Caco-2, 10 μM; for Papp A→B at 90 min, 10 μM: apical-to-basolateral; for Papp B→A at 90 min, 10 μM: basolateral-to-apical. As to the method:
Caco-2 cells were cultured in 75 cm2 flasks to 80-90% confluence in a humidified atmosphere at 37 °C and 5% CO2. Cells were detached with Trypsin/EDTA solution and resuspended in the complete medium containing DMEM high glucose (4500 mg/L) with L-glutamine (4 mM) supplemented with 10% […]
heat-inactivated Fetal Bovine Serum, 1% non-essential amino acids, and 730 nM puromycin and seeded at a density 5 × 10^5 cells in 75 cm2 flask. After 5 days, cells were trypsinized and resuspended in the complete medium to a final concentration of 600 × 10^3 cells/mL. 400 μL of the cell suspension was added to each well of the HTS 24-Multiwell Insert System and 25 mL of prewarmed complete medium was added to the feeder tray. Caco-2 cells were incubated in Multiwell Insert System for 6-10 days before the transport experiments. The medium in the filter plate and feeder tray was refreshed every other day. The 24-well insert plate was removed from its feeder plate and placed in a new sterile 24-well transport analysis plate. The inserts were washed with PBS after medium aspiration. Ketoprofen, atenolol, and digoxin were used as reference compounds.
To determine the rate of compounds transport in apical (A)-to-basolateral (B) direction, 300 μL of the test compound dissolved in transport buffer (Hanks’ BSS (9.5 g/L) and NaHCO3 (0.35 g/L) with MgSO4 to final concentration 0.81 mM, CaCl2 to final concentration 1.26 mM, HEPES to final concentration 25 mM, pH adjusted to 7.4) was added into the filter wells; 1000 μL of transport buffer was added to transport analysis plate wells. To determine transport rates in the basolateral (B)-to-apical (A) direction, 1000 μL of the test compound solutions was added into the wells of the transport analysis plate, the wells in the filter plate were filled with 300 μL of buffer. The final amount of reference and test compounds was 10 μM. The plates were incubated for 90 min at 37 °C under continuous shaking at 100 rpm. 75 μL aliquots were taken from the donor and receiver compartments for LC-MS/MS analysis. All samples were mixed with 2 volumes of acetonitrile followed by protein sedimentation by centrifuging at 10000 rpm for 10 min. Supernatants were analyzed using the HPLC system coupled with a tandem mass spectrometer. […]
The GIT model was simulated using the GIT-0 phospholipid mix.
Verapamil, quinidine (high permeability), and ranitidine (low permeability) were used as reference […]
All compounds were tested in triplicate. Prisma HT buffer (pH 7.4) containing 50 μM test compounds (0.5% DMSO) was added to the Donor Plate wells. Acceptor Sink Buffer was added to each well of the Acceptor Plate. Incubation was done at room temperature for 4 hours without stirring. After

A further data set addresses T2, β1c subunit of human cCP (Homo sapiens, UniProt P28072+Q99436).
T2 construct: purchased Boston Biochem, Inc
In words: IC50 determination with subunit-specific fluorogenic substrate Ac-nLPnLD-AMC. It is filed as biochemical. To be noted: human cCP; mean of at least three experiments; NA: not active at 50 μM.

The next data set is described as follows: Kinetic solubility. In kind it is physicochemical. To be noted: 25 °C; for solubility at 2 h / solubility kinetic at 2 h: phosphate-buffered saline, pH 7.4, aqueous buffer, kinetic from dmso stock; for solubility at 2 h: read-out: PBS solubility, pH 7.4; for solubility kinetic at 2 h: CSV column, unit inferred. As to the method:
Briefly, using a 20 mM (10 mM for 5l) stock solution of the compound in 100% DMSO, dilutions were prepared to a theoretical concentration of 400 μM (200 μM for 5l) in duplicates in phosphate-buffered saline pH 7.4 (138 mM NaCl, 2.7 mM KCl, 10 mM K-phosphate) with 2% final DMSO. The experimental compound dilutions in PBS were further allowed to equilibrate at 25 °C on a thermostatic shaker for two hours and then filtered through HTS filter plates using a vacuum manifold. The filtrates of test compounds were diluted 2-fold with acetonitrile with 2% DMSO before measuring.
In parallel, using a 20 mM (10 mM for 5l) stock solution of the compound in 100% DMSO dilutions were prepared to theoretical concentrations of 0 μM (blank), […] (0 μM (blank), 10 μM, 25 50 μM, and 100 μM,μM for 5l) in 50% acetonitrile/PBS with 2% final DMSO to generate calibration curves. Ondansetron was used as a reference compound to control proper assay performance. 200 μL of each sample was transferred to a 96-well plate and measured in the 230-550 nm range with a 5 nm step. […]

In another data set the target is T3, β5c subunit of human cCP (Homo sapiens, UniProt P20618+P28074).
T3 construct: purchased Boston Biochem, Inc
In words: IC50 determination with fluorogenic substrate Ac-WLA-AMC. It is filed as biochemical. The note with it: human cCP; mean of at least three experiments; NA: not active at 50 μM.

In the next data set the target is β5i subunit of human iCP (Homo sapiens, UniProt P20618+P28062). In words: IC50 determination with fluorogenic substrate Ac-ANW-AMC. The note with it: IC50 β5i, human iCP; mean of at least three experiments; NA: not active at 50 μM.
The target in a further data set is β2i subunit of human iCP (Homo sapiens, UniProt P40306+P49720). In words: IC50 determination with fluorogenic substrate Ac-RLR-AMC (PA28β added).
The target of the next data set is β1i subunit of human iCP (Homo sapiens, UniProt P28065+P40306). In words: IC50 determination with subunit-specific fluorogenic substrate Ac-PAL-AMC. To be noted: IC50 β1i, human iCP; mean of at least three experiments; NA: not active at 50 μM.
Data set [1] relates to human umbilical vein endothelial cells. Description: Cytotoxicity MTS assay. To be noted: 10, 50 and 250 nM, 72 h, MTS (Figure S2). It is filed as cell-based.
Description: Cytotoxicity was determined using the MTS cell proliferation assay (CellTiter 96 AQueous One Solution Cell Proliferation Assay, Promega, Wisconsin, USA), which measures mitochondrial metabolic activity as a surrogate for cell viability. The assay was performed according to the manufacturer protocol. The cytotoxicity was performed on HepG2, MCF-7, MDA-MB-231, MOLT-4, MM.1S, THP-1, RAJI cell lines and on HUVECs as well as PBMCs. The cells were seeded in 96-well plates (15.000–30.000 cells/well). After 24 h incubation at 5% CO2 and 37 °C, the cells were treated either with DMSO (negative control) or solutions of the tested compounds in DMSO. After 24 or 72 h, MTS reagent was added. Cells were incubated for additional 2 h - 4 h, followed by the measurement of absorbance at 490 nm on the Tecan Spark microplate reader.
For another data set, the system named is PBMCs. In words: Cytotoxicity MTS assay. It is filed as cell-based, human. To be noted: 10, 50 and 250 nM, 24 h, MTS (Figure S1).
[2] abbreviates: kinetic solubility, 2% DMSO, two hours, theoretical concentration 400 μM (200 μM for 5l).

Description for PBMCs: Buffy coats from venous blood of anonymized healthy donors were purchased from Blood Transfusion Centre of Slovenia. PBMCs were isolated by density gradient centrifugation with Ficoll-Paque (Pharmacia, Sweden). The isolated cells were resuspended in RPMI 1640 medium (Sigma-Aldrich, St. Louis/MO, United States) supplemented with 10% heat-inactivated FBS (Gibco, ThermoFisher Scientific, Waltham/MA, United States), 2 mM L-glutamine (Sigma-Aldrich, St. Louis/MO, United States), 100 U/mL penicillin (Sigma-Aldrich, St. Louis/MO, United States), and 100 μg/mL streptomycin (Sigma-Aldrich, St. Louis/MO, United States).
Cytotoxicity was determined using the MTS cell proliferation assay (CellTiter 96 AQueous One Solution Cell Proliferation Assay, Promega, Wisconsin, USA), which measures mitochondrial metabolic activity as a surrogate for cell viability. The assay was performed according to the manufacturer protocol. The cytotoxicity was performed on HepG2, MCF-7, MDA-MB-231, MOLT-4, MM.1S, THP-1, RAJI cell lines and on HUVECs as well as PBMCs. The cells were seeded in 96-well plates (15.000–30.000 cells/well). After 24 h incubation at 5% CO2 and 37 °C, the cells were treated either with DMSO (negative control) or solutions of the tested compounds in DMSO. […] Cells were incubated for additional 2 h - 4 h, followed by the measurement of absorbance at 490 nm on the Tecan Spark microplate reader.
Description for β1c subunit of human cCP: (§1) The measurements of the residual activity of control compounds were carried out at final compound concentrations of 1 μM in the assay buffer (50 mM Tris-HCl, 0.5 mM ethylenediaminetetraacetic acid (EDTA), pH 7.4). Stock solutions of the compounds were prepared in DMSO. To the 35 μL of solution of the compound in the buffer, 35 μL of 0.4 nM human iCP (South Bay Bio, San Jose, CA, USA) or human cCP (Boston Biochem, Inc., Cambridge, MA, USA) was added. For assays evaluating the activity of β2c and β2i, the buffer was modified by adding the proteasomal activator PA28β (Boston Biochem, Inc., Cambridge, MA, USA) at a final concentration of 6 nM. […] The substrates used were acetyl-Nle-Pro-Nle-Asp-7-amino-4-methylcoumarin (Ac-nLPnLD-AMC, Bachem, Bubendorf, Switzerland) for β1c, acetyl-Pro-Ala-Leu-7-amino-4-methylcoumarin (Ac-PAL-AMC, Boston Biochem, Inc., Cambridge, MA, USA) for β1i, acetyl-Arg-Leu-Arg-7-amino-4-methylcoumarin (Ac-RLR-AMC, Bachem, Bubendorf, Switzerland) for β2c and β2i, acetyl-Trp-Leu-Ala-7-amino-4-methylcoumarin (Ac-WLA-AMC, Bachem, Bubendorf, Switzerland) for β5c, and acetyl-Ala-Asn-Trp-7-amino-4-methylcoumarin (Ac-ANW-AMC, Bachem, Bubendorf, Switzerland) for β5i. Progress of the reaction was measured using a BioTek Synergy HT microplate reader, monitoring fluorescence at 460 nm (excitation at 360 nm) for 60 min at 37 °C. The initial linear ranges were used to calculate the reaction velocity and determine the residual activity.
(§2) The final assay mixtures contained 0.4 nM human iCP or cCP in assay buffer (50 mM Tris-HCl, 0.5 mM EDTA, pH 7.4, addition of PA28β for β2c and β2i subunits). […] After incubation at 37 °C for 30 min, the reaction was initiated by the addition of the substrate Ac-nLPnLD-AMC for β1c, Ac-PAL-AMC for β1i, Ac-RLR-AMC for β2c and β2i, Ac-WLA-AMC for β5c, and Ac-ANW-AMC for β5i. Fluorescence was monitored at 460 nm (excitation at 360 nm) for 60 min at 37 °C. The reaction progress was recorded and the initial linear phases were used to determine the velocity. The IC50 values were calculated using GraphPad Prism software (GraphPad Software, San Diego, CA, USA), and the results represent the mean values of at least three independent determinations.
Description for β1i subunit of human iCP: as §1, §2
Description for β2c subunit of human cCP: Stock solutions of the compounds were prepared in DMSO. To the 35 μL of solution of the compound in the buffer, 35 μL of 0.4 nM human iCP (South Bay Bio, San Jose, CA, USA) or human cCP (Boston Biochem, Inc., Cambridge, MA, USA) was added. For assays evaluating the activity of β2c and β2i, the buffer was modified by adding the proteasomal activator PA28β (Boston Biochem, Inc., Cambridge, MA, USA) at a final concentration of 6 nM. […] The substrates used were acetyl-Nle-Pro-Nle-Asp-7-amino-4-methylcoumarin (Ac-nLPnLD-AMC, Bachem, Bubendorf, Switzerland) for β1c, acetyl-Pro-Ala-Leu-7-amino-4-methylcoumarin (Ac-PAL-AMC, Boston Biochem, Inc., Cambridge, MA, USA) for β1i, acetyl-Arg-Leu-Arg-7-amino-4-methylcoumarin (Ac-RLR-AMC, Bachem, Bubendorf, Switzerland) for β2c and β2i, acetyl-Trp-Leu-Ala-7-amino-4-methylcoumarin (Ac-WLA-AMC, Bachem, Bubendorf, Switzerland) for β5c, and acetyl-Ala-Asn-Trp-7-amino-4-methylcoumarin (Ac-ANW-AMC, Bachem, Bubendorf, Switzerland) for β5i. Progress of the reaction was measured using a BioTek Synergy HT microplate reader, monitoring fluorescence at 460 nm (excitation at 360 nm) for 60 min at 37 °C. The initial linear ranges were used to calculate the reaction velocity and determine the residual activity.
as §2
Description for β2i subunit of human iCP: as §1, §2
Description for β5c subunit of human cCP: as §1, §2
Description for β5i subunit of human iCP: as §1, §2

On to `O=C(N[C@@H](Cc1ccccc1)C(=O)N[C@H](B(O)O)C1CCCC1)c1cnccn1` [5l, ((R)-Cyclopentyl((S)-3-phenyl-2-(pyrazine-2-carboxamido)propanamido)methyl)boronic Acid], for which the IC50 worked out at 37400 nM at β2c subunit of human cCP; 18 nM at β1c subunit of human cCP; 44 nM against β5c subunit of human cCP; 58 nM on β5i subunit of human iCP; 1000 nM on β2i subunit of human iCP; 3 nM at β1i subunit of human iCP. In addition, the efflux ratio at 90 min, 10 μM in “Caco-2 permeability” (Caco-2, pH 7.4, quotient of Papp(BA) to Papp(AB)) is 8.4. The compound further registered a Papp A→B at 90 min, 10 μM in “Caco-2 permeability” of 2 ± 0.2 ×10⁻⁶ cm/s. In the data set “Caco-2 permeability”, the Papp B→A at 90 min, 10 μM is 17.1 ± 1 ×10⁻⁶ cm/s. The solubility at 2 h in “Kinetic solubility” (setting [2]) is at least 200 µM. This compound showed a kinetic solubility at 2 h in the data set “Kinetic solubility” of over 200 µM.
For the compound `CC(C)C[C@H](NC(=O)[C@H](Cc1ccccc1)NC(=O)c1cnccn1)B(O)O` [bortezomib, reference compound], the “cytotoxic effect on human umbilical vein endothelial cells” value in data set [1] is “more cytotoxic”. In addition, in the data set on PBMCs, the “cytotoxic effect on PBMCs” value is given as “more cytotoxic”. Moreover, in “Caco-2 permeability”, the Papp A→B at 90 min, 10 μM turned out to be 2.8 ± 0.1 ×10⁻⁶ cm/s and the Papp B→A at 90 min, 10 μM came out at 20.7 ± 0.1 ×10⁻⁶ cm/s. In the data set “Kinetic solubility” (setting [2]), the “PBS solubility, pH 7.4” value is over 200 μM and the solubility at 2 h amounted to 399 µM (≈ 153 µg/mL). Further, the solubility (kinetic) at 2 h in the data set “Kinetic solubility” is 399 µM (≈ 153 µg/mL).
